# Reference: patent US20230302033A1, “FORMULATIONS OF NICOTINIC ACID DERIVATIVES AND FLAVONOID POLYPHENOLS AND USES THEREOF” (Animal Biosciences, Inc., priority 2021, published 2023)
# Entries after “also recorded” stand apart in the source; their conditions may differ.
# How the values were obtained:
# male Beagle dogs = assay: Seven day repeat dose tolerability study of NaR; assay type: in vivo, Canis familaris (dog)/Beagle; settings: oral capsule, 10, 20 and 30 mg/kg/day for seven days
# Method: The objective of this study was to evaluate the tolerability and pharmacokinetic profile following 7-days of repeat dose administration of NaR.
# NaR is provided as 100 mg capsule, size 4, stored at 18-26° C., and fisetin is provided as 100 mg capsule, size 0, stored at 18-26° C. Canis familaris (dog)/Beagle—nine non-naïve males, age 1-3 years, weight 7-11 kg.
# (§1) The appropriate number of NaR capsules were administered once daily to non-naïve male beagle dogs. Capsules were followed by at least 5 mL of tap water to ensure complete delivery. Animals were fed approximately 2 hours prior to dosing, with food removed approximately 2 hours post-dose. Samples for bioanalysis were collected during the pre-dose period (Day −7; based on Time Zero of 9 am) at 0, 0.25, 0.5, 1, 2, 4, 6, 8, 12, and 24 hours post-Time Zero. Samples were collected on Day 1 and 7 at 0, 0.25, 0.5, 1, 2, 4, 6, 8, 12, and 24 hours post dose, and on Days 3-5 at 2 hours post dose. Samples were analyzed for NAD+ using a bioassay.
# NAD+ = assay: Treated whole blood NAD+ pharmacokinetics after 7-day oral NaR (Examples 1 and 4); assay type: in vivo, Canis familaris (dog)/Beagle
# Method: as §1
# A non-compartmental Pharmacokinetic (PK) approach consistent with oral route of administration was used to estimate PK parameters in Watson LIMS (version 7.5). All parameters were generated from individual concentrations in treated whole blood whenever practical. Mean values for each dose group were also reported. All concentration values were in ng/mL, and all time points were in hours. Nominal dose concentrations and sampling times were used. The observed maximum treated whole blood concentration (Cmax), time of Cmax (Tmax), and AUC (area under the concentration vs. time curve) were determined directly from the data during the entire 24 hour time interval post dosing. The dose levels were either 10, 20, or 30 mg/kg/day (Groups 1, 2, and 3, respectively). PK samples were collected on days −7 predose, 1 and 7 post dose, of a seven day once daily study. Samples on days 3, 4, and 5 postdose, at only one timepoint were collected but not included in PK parameter estimation.
# Whenever possible, standard deviation and coefficient of variation determined by Watson LIMS were used. For analyses that were not supported by Watson, i.e. custom comparisons, Excel was used, and the statistics were reported as determined by Excel algorithms.
# purpose-bred beagles = assay: Tolerability of orally administered NaR, single dose escalation and 7-day repeat dosing; assay type: in vivo
# Method: The tolerability of NaR administered orally was determined in a two-phase laboratory study in purpose-bred beagles (male and female, 6.3-9.2 kg, 6 months old at the start of the study). The first phase of the study included single dose escalations of 100, 300, 1000 and 2000 mg/kg (n=4 per group). The second phase tested repeat dosing consisting of daily dosing over seven days of 100, 300 and 1000 mg/kg (n=6 per group). Administration occurred via oral gavage with an 18 French catheter into the stomach. The animals were assigned to groups by a stratified randomization scheme designed to achieve similar group mean body weights. Males and females were randomized separately.
# [1] = test system: mature purpose-bred beagles and mongrels; assay: Activity and safety of orally administered NaR, 28-day placebo-controlled study; assay type: in vivo
# Source text: A double blinded, placebo-controlled, non-randomized laboratory study to assess activity and safety was completed in 15 mature purpose-bred beagles and mongrels over a period of 28 days. The four males and 11 females ranged in age from 4-11 years, with a mean of 7.75 years. Body weights for beagles (n=12) were 9.5-15 kg and for mongrels (n=3) 24-40 kg. The animals were fitted with activity collars and housed in a room that allowed free movement for ˜ nine hours per day. They received three enrichment periods of 15 minutes per day consisting of interaction with caretakers. The activity of the animals was tracked 24 hours per day using actigraphy (accelerometers attached to the animal's collar) and force plate analysis for assessing changes to gait. A modified canine cognitive dysfunction rating (CCDR) (Madari et al., “Assessment of Severity and Progression of Canine Cognitive Dysfunction Syndrome Using the Canine Dementia Scale (CADES),” Applied Animal Behaviour Science 171: 138-145 (2015), which is hereby incorporated by reference in its entirety) and canine orthopedic index (COI) (Brown, D., “The Canine Orthopedic Index. Step 1: Devising the Items,” Veterinary Surgery 43: 232-240 (2014); Brown, D., “The Canine Orthopedic Index. Step 2: Psychometric Testing,” Veterinary Surgery 43: 241-246 (2014); and Brown, D., “The Canine Orthopedic Index. Step 3: Responsiveness Testing,” Veterinary Surgery 43: 247-254 (2014), which are hereby incorporated by reference in their entirety) were completed pretreatment, and on days 14 and 28. Physical examination, body weight, body condition score (BCS) and complete blood count and blood chemistry were evaluated pretreatment and weekly. The animals were dosed orally with capsules daily after an overnight fast.
# aged C56BL/6 male mice = assay: Frailty measurements in aged mice (Frailty Index, FRIGHT Age, AFRAID score); assay type: in vivo
# Method: Frailty was measured in aged C56BL/6 male mice, starting at 18 months old (n=50 per group) monthly, over time compared with placebo-treated controls. NaR was administered in the water in low and high dosages of 60 and 400 mg/kg. The animals were group housed 4 per cage and the water was changed weekly. The animals were fed ad libitum and received daily photoperiods of approximately 12 hours of light alternating with 12 hours of darkness.
# Three validated scoring methods, Frailty Index (Whitehead et al., “A clinical frailty index in aging mice: Comparisons with frailty index data in humans” J Gerontol A Biol Sci Med Sci. 69:621-632(2014)), FRIGHT Age (Schultz et al., “Age and life expectancy clocks based on machine learning analysis of mouse frailty” Nature Comm. 11(1):4618 (2020)) and AFRAID score (Schultz et al., “Age and life expectancy clocks based on machine learning analysis of mouse frailty” Nature Comm. 11(1):4618 (2020)) were conducted at 25 months of age. […]
# NAD = assay: Bioavailability and pharmacokinetics of NaR and fisetin: whole blood NAD (Example 6, Studies #1 and #2); assay type: in vivo, Canis familaris (dog)/Beagle
# Method: A series of pharmacokinetic studies were conducted to evaluate the bioavailability of a series of dosages and dosing regimens as measured in whole blood in non-fasted, adult Beagle dogs. NaR, NMN, Fisetin, individually and combination dosing (NaR-Fisetin and NMN-Fisetin) were tested.
# Tables 1 and 2 show the dosing regimens of Study #1 conducted over 7 days and Study #2 conducted over 28 days, respectively. In Study #1, three dosage combinations were tested (Groups 1-3). An additional group (Group 4) was included to test the effects of fasting on the whole blood concentration of NAD. In Study #2, the effects of each compound individually and in combination were evaluated (Groups 1-3). Study #2 contained another test group (Group 4), which was included to compare the effects of NMN vs NaR in combination with Fisetin by Day 7 to determine if the effects seen on NAD concentration were unique to NaR vs. NAD booster, in general. Baseline NAD concentrations sampled over 24 hours on day −7 served as controls for endogenous NAD concentrations.
# Two mL blood samples were collected at each time point using K2EDTA as an anticoagulant from all animals in each dose group. A sample was obtained prior to dosing (Day −7 pre-dose). On Day −7, groups 1-3 had 1 sample collected prior to feeding, and at times 0, 0.25, 0.5, 1, 2, 4, 6, 8, 12, and 24 hours post-Time Zero. On Day 2, groups 1-3 had 1 sample collected prior to feeding (˜2 hr prior to Time Zero) and at times 0, 0.25, 0.5, 1, 2, 4, 6, 8, 12, and 24 hours post-dose. On Days 3-5, samples were collected 2 hours post-dose, and on Day 7 samples were collected prior to feeding Groups 1-3 (˜2 hours prior to Time Zero) from all animals, and at time points 0.25, 0.5, 1, 2, 4, 6, 8, 12, and 24 hours post-dose.
# For Group 2, on Day 21, post-dosing, and on Day 35, one sample was collected prior to feeding, and at times 0, 0.25, 0.5, 1, 2, 4, 6, 8, 12, and 24 hours post-Time Zero. The samples were processed for NAD+.
# Two mL blood samples were collected at each time point using K2EDTA as an anticoagulant from all animals in each dose group. On Day 0 each group had 1 sample collected at times 0, 0.5, 1, 2, 4, 8, and 12 hours post-Time Zero. On Days 1, 2, 3, and 7, each group had 1 sample collected at times 0, 0.5, 1, 2, 4, 8, and 12 hours post-dose. On Days 14, 21, and 28 Groups 1-3 had samples taken at 0, 0.5, 1, 2, and 12 hours post-dose.
# Immediately after collection, the sample tubes were inverted multiple times to ensure homogenization, then placed in an ice water bath until analysis. All samples were processed for NAD+ analysis and Fisetin analysis.
# The bioanalytical data was used in the generation of a pharmacokinetic data using parameters calculated for each individual animal for Days 2 and 7, including: Tmax, Cmax, AUC0-24 and T½, as described in the previous examples, and the effect of repeat dosing on exposure was assessed by statistical analyses, e.g., mean and standard deviation for numerical parameters.
# [2] = Beagle dogs, oral NaR 10, 20, 30 mg/kg/day, post dose
# [3] = beagles, oral gavage, highest dosage tested
# [4] = beagles, oral gavage, single 100-2000 mg/kg and 7-day 100-1000 mg/kg
# [5] = treated dogs compared with controls, oral capsules daily, 28 days
# [6] = Beagle dogs, all dosing regimens of Studies #1 and #2
compound,measurement,setting,value
"O=C([O-])c1ccc[n+]([C@@H]2O[C@H](CO)[C@@H](O)[C@H]2O)c1 [NaR, nicotinic acid riboside]","test article-related effects on mortality or moribundity, clinical observations, body weight, food consumption; tolerability",male Beagle dogs,no test article-related effects; also recorded: well tolerated
same,Median Tmax of NAD+ in treated whole blood,NAD+; [2],less than 2 hours
same,"Tmax of NAD+, range of values",NAD+; [2],0 to 2 h
same,NAD+ levels after oral capsule administration,"NAD+; Beagle dogs, oral capsule, 10-30 mg/kg/day, 7 days",measurable increases
same,"Mean Cmax of NAD+, change between Day 1 and Day 7","NAD+; all dose groups (10, 20, 30 mg/kg/day)",accumulation; also recorded: increase
same,"NAD+ Cmax ratio between Day 7 and Day 1, individual animals",NAD+; highest dose group (30 mg/kg/day) compared to the others,clear increase
same,"NAD+ AUC0-24 ratio between Day 7 and Day 1, individual animals",NAD+; mid dose group (20 mg/kg/day) compared to the other two groups,higher value
same,Bioavailability (conclusion from NAD+ bioanalysis),"NAD+; oral capsule, Beagle dogs",bioavailable
same,increase in sorbitol dehydrogenase (SDH) activity,"purpose-bred beagles; 300 and 1000 mg/kg males, 300 mg/kg females, Day 2 vs pretreatment, low magnitude (e.g., 0 U/L to 2 U/L)",non-adverse
same,"maximum tolerated dosage, 7-day repeat dosing phase",purpose-bred beagles; [3],1000 mg/kg/day
same,"maximum tolerated dosage, single dosing phase",purpose-bred beagles; [3],2000 mg/kg
same,Body weights and food consumption,purpose-bred beagles; [4],unaffected by treatment
same,Survival,purpose-bred beagles; [4],All animals survived
same,treatment related clinical observations,purpose-bred beagles; [4],no treatment related clinical observations
same,adverse clinical observations,"[1]; oral capsules daily, 28 days",No adverse clinical observations
same,blood chemistry and hematology results,"[1]; oral capsules daily, 28 days",remained within the reference ranges
same,canine cognitive dysfunction rating (CCDR) and canine orthopedic index (COI),"[1]; pretreatment, days 14 and 28",No changes
same,"movement when resting (sleep), actigraphy",[1]; [5],less movement when resting
same,"overall activity (frequency and intensity), diurnal rhythm, actigraphy",[1]; [5],increase in overall activity
same,"Frailty vs controls, both treatment groups (60 and 400 mg/kg)",aged C56BL/6 male mice; in two of the three methods,significantly different
same,"Frailty vs controls by all three methods (Frailty Index, FRIGHT Age, AFRAID score)","aged C56BL/6 male mice; low dose 60 mg/kg in the water, end of the study, p<0.05",significantly less frail
same,median AUC0-24 of whole blood NAD,NAD; [6],"133,000 ng·h/mL"
same,median Cmax of whole blood NAD,NAD; [6],6990 ng/mL
same,NAD concentration from Day 7 to Day 28,"NAD; NaR only dosing, 20 mg/kg",decrease
same,NAD concentration from Day 1 to Day 7,"NAD; NaR only dosing, all dose levels",increase
same,"AUC and NAD concentrations, NaR only dose levels compared","NAD; NaR only, dose of 20 mg/kg",highest AUC and NAD concentrations
"O=c1c(O)c(-c2ccc(O)c(O)c2)oc2cc(O)ccc12 [fisetin, 3,3′,4′,7-tetrahydroxyflavone]",NAD concentration at Day 28,NAD; fisetin only dosing,returned to baseline
same,"NAD concentration at days 7, 14 and 21",NAD; fisetin only dosing,decreased
same,whole blood NAD concentration,"NAD; fisetin only dosing, 20 mg/kg",below 7000 ng/mL
